Literature values as cited in patent publication US12274791B2, “Multiple unit dosage form having a therapeutic agent in combination with a nutritional supplement” (Bonafide Health, LLC, priority 2007, dated 2025).
Where two headings read alike, the source gives them in different places.

Compound | toxic effects (rats, levels several thousand times the upper limit of the ESADDI for chromium for humans (based on body weight)) | toxic effects (rat, in vivo)
[Cl][Cr]([Cl])[Cl] [chromium chloride] | without toxic effects | 
Chromium picolinate |  | without toxic effects
